Results published in publication PMC10835127, “Viruses traverse the human proteome through peptide interfaces that can be biomimetically leveraged for drug discovery” (Proceedings of the National Academy of Sciences of the …, 2024).
Like-named read-outs stand apart in the source and are kept apart here.

What was measured:
HIV1 strain NL4-3 = type: cell-based; settings: normalized mean of HIV1 replication readout
HCV replicon = type: cell-based; settings: normalized mean of HCV replicon readout
[1] = test system: F. novicida (strain U112); type: cell-based
influenza A H1N1 virus = settings: 48 hr post-treatment, A549
EBV = settings: normalized mean of EBV replication readout

EALKKALRRHRFLWQRR [CPEP73]
HIV1 Norm MEAN (HIV1 strain NL4-3; peptide screen): 0.2962
HCV Norm MEAN (HCV replicon; peptide screen): 0.02817
Francisella novicida Norm AUC [1]: 1.711
Neuraminidase activity normalized to vehicle (influenza A H1N1 virus; 200 µM peptide): 0,1338
Neuraminidase activity normalized to vehicle (influenza A H1N1 virus; 0,823 µM peptide): 1,11
Neuraminidase activity normalized to vehicle (influenza A H1N1 virus; 22,2 µM peptide): 1,1241
Neuraminidase activity normalized to vehicle (influenza A H1N1 virus; 2,4691 µM peptide): 0,9956
Neuraminidase activity normalized to vehicle (influenza A H1N1 virus; 7,4074 µM peptide): 1,1329
Neuraminidase activity normalized to vehicle (influenza A H1N1 virus; 66,6667 µM peptide): 0,4622
EBV Norm MEAN (EBV; peptide screen): 2.469

MSKKPGGPGKNRAVN [CPEP42]
HIV1 Norm MEAN (HIV1 strain NL4-3; peptide screen): 0.4686
HCV Norm MEAN (HCV replicon; peptide screen): 0.9525
Francisella novicida Norm AUC [1]: 1.093
Neuraminidase activity normalized to vehicle (influenza A H1N1 virus; 200 µM peptide): 0,9312
Neuraminidase activity normalized to vehicle (influenza A H1N1 virus; 0,823 µM peptide): 0,9146
Neuraminidase activity normalized to vehicle (influenza A H1N1 virus; 22,2 µM peptide): 1,055
Neuraminidase activity normalized to vehicle (influenza A H1N1 virus; 2,4691 µM peptide): 0,9945
Neuraminidase activity normalized to vehicle (influenza A H1N1 virus; 7,4074 µM peptide): 0,9864
Neuraminidase activity normalized to vehicle (influenza A H1N1 virus; 66,6667 µM peptide): 1,0215
EBV Norm MEAN (EBV; peptide screen): 0.6277

DKELYPLTSLRSLFG [CPEP65]
HIV1 Norm MEAN (HIV1 strain NL4-3; peptide screen): 0.2888
HCV Norm MEAN (HCV replicon; peptide screen): 0.8278
Francisella novicida Norm AUC [1]: 0.6089
Neuraminidase activity normalized to vehicle (influenza A H1N1 virus; 200 µM peptide): 0,356
Neuraminidase activity normalized to vehicle (influenza A H1N1 virus; 0,823 µM peptide): 0,8623
Neuraminidase activity normalized to vehicle (influenza A H1N1 virus; 22,2 µM peptide): 1,0442
Neuraminidase activity normalized to vehicle (influenza A H1N1 virus; 2,4691 µM peptide): 0,9706
Neuraminidase activity normalized to vehicle (influenza A H1N1 virus; 7,4074 µM peptide): 0,9802
Neuraminidase activity normalized to vehicle (influenza A H1N1 virus; 66,6667 µM peptide): 1,0044
EBV Norm MEAN (EBV; peptide screen): 0.6954

CPEP14: peptide of the viral peptide library; sequence page not shown (ILHTPGCVPCVR)
HIV1 Norm MEAN (HIV1 strain NL4-3): 0.4683
HCV Norm MEAN (HCV replicon): 0.5608
Francisella novicida Norm AUC [1]: 1.22
Neuraminidase activity normalized to vehicle (influenza A H1N1 virus; 200 µM peptide): 0,9254
Neuraminidase activity normalized to vehicle (influenza A H1N1 virus; 0,823 µM peptide): 0,9272
Neuraminidase activity normalized to vehicle (influenza A H1N1 virus; 22,2 µM peptide): 1,0033
Neuraminidase activity normalized to vehicle (influenza A H1N1 virus; 2,4691 µM peptide): 0,9392
Neuraminidase activity normalized to vehicle (influenza A H1N1 virus; 7,4074 µM peptide): 0,9017
Neuraminidase activity normalized to vehicle (influenza A H1N1 virus; 66,6667 µM peptide): 1,0554
EBV Norm MEAN (EBV): 1.5484

FVKSNWGLF [CPEP101]
HIV1 Norm MEAN (HIV1 strain NL4-3): 0.9706
HCV Norm MEAN (HCV replicon): 0.5497
Francisella novicida Norm AUC [1]: 1.6479
Neuraminidase activity normalized to vehicle (influenza A H1N1 virus; 200 µM peptide): 0,7463
Neuraminidase activity normalized to vehicle (influenza A H1N1 virus; 0,823 µM peptide): 1,0136
Neuraminidase activity normalized to vehicle (influenza A H1N1 virus; 22,2 µM peptide): 0,9003
Neuraminidase activity normalized to vehicle (influenza A H1N1 virus; 2,4691 µM peptide): 0,9061
Neuraminidase activity normalized to vehicle (influenza A H1N1 virus; 7,4074 µM peptide): 0,9057
Neuraminidase activity normalized to vehicle (influenza A H1N1 virus; 66,6667 µM peptide): 0,8948
EBV Norm MEAN (EBV): 1.466

DLYCYEQLNDSSEEE [CPEP55]
HIV1 Norm MEAN (HIV1 strain NL4-3; peptide screen): 0.5362
HCV Norm MEAN (HCV replicon; peptide screen): 0.7703
Francisella novicida Norm AUC [1]: 1.147
Neuraminidase activity normalized to vehicle (influenza A H1N1 virus; 200 µM peptide): 1,025
Neuraminidase activity normalized to vehicle (influenza A H1N1 virus; 0,823 µM peptide): 0,8699
Neuraminidase activity normalized to vehicle (influenza A H1N1 virus; 22,2 µM peptide): 0,9333
Neuraminidase activity normalized to vehicle (influenza A H1N1 virus; 2,4691 µM peptide): 0,9062
Neuraminidase activity normalized to vehicle (influenza A H1N1 virus; 7,4074 µM peptide): 0,9392
Neuraminidase activity normalized to vehicle (influenza A H1N1 virus; 66,6667 µM peptide): 1,0033
EBV Norm MEAN (EBV; peptide screen): 0.3423

SLQYLALAALITPKK [CPEP46]
HIV1 Norm MEAN (HIV1 strain NL4-3; peptide screen): 2.169
HCV Norm MEAN (HCV replicon; peptide screen): 0.6647
Francisella novicida Norm AUC [1]: 0.3644
Neuraminidase activity normalized to vehicle (influenza A H1N1 virus; 200 µM peptide): 0,1529
Neuraminidase activity normalized to vehicle (influenza A H1N1 virus; 0,823 µM peptide): 0,9309
Neuraminidase activity normalized to vehicle (influenza A H1N1 virus; 22,2 µM peptide): 0,9118
Neuraminidase activity normalized to vehicle (influenza A H1N1 virus; 2,4691 µM peptide): 1,043
Neuraminidase activity normalized to vehicle (influenza A H1N1 virus; 7,4074 µM peptide): 1,0188
Neuraminidase activity normalized to vehicle (influenza A H1N1 virus; 66,6667 µM peptide): 0,8482
EBV Norm MEAN (EBV; peptide screen): 0.9835

CPEP153: peptide of the viral peptide library; sequence page not shown (GRKKRRQRRR)
HIV1 Norm MEAN (HIV1 strain NL4-3): 0.7984
HCV Norm MEAN (HCV replicon): 0.3202
Francisella novicida Norm AUC [1]: 0.6851
Neuraminidase activity normalized to vehicle (influenza A H1N1 virus; 200 µM peptide): 0,9878
Neuraminidase activity normalized to vehicle (influenza A H1N1 virus; 0,823 µM peptide): 1,0171
Neuraminidase activity normalized to vehicle (influenza A H1N1 virus; 22,2 µM peptide): 1,0832
Neuraminidase activity normalized to vehicle (influenza A H1N1 virus; 2,4691 µM peptide): 1,0648
Neuraminidase activity normalized to vehicle (influenza A H1N1 virus; 7,4074 µM peptide): 1,0014
Neuraminidase activity normalized to vehicle (influenza A H1N1 virus; 66,6667 µM peptide): 1,1029
EBV Norm MEAN (EBV): 2.382
